Data published in ChEMBL document CHEMBL6127081, “Peptide inhibitors targeting Ras and Ras-associated protein-protein interactions” (Eur J Med Chem, 2024).
Blank lines part the entries; values can stand above or below the compound they belong to. Where a SMILES comes first, the peptide text is derived from it. Bridges are numbered along the chain shown (N, C = ends). [ ]: non-standard residue; d: D form. hArg = N=C(N)NCCCC[C@H](N)C(=O)O; S5 = C=CCCC[C@](C)(N)C(=O)O

How the values were obtained:
[1] = biological target: T1, GTPase KRas (Homo sapiens, UniProt P01116); assay: Binding affinity to KRas (unknown origin) assessed as apparent dissociation constant by fluorescence anisotropy analysis; conditions: read-out: Kd(app)
T1 sequence (P01116 whole entry): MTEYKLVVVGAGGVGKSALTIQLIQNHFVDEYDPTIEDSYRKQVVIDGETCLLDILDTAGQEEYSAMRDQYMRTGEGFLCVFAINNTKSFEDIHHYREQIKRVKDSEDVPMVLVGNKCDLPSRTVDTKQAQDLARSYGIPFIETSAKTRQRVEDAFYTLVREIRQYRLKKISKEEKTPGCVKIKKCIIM

[2] = biological target: T2, GTPase KRas (Homo sapiens, UniProt P01116, G12V); assay: Binding affinity to KRas G12V mutant (unknown origin) assessed as apparent dissociation constant by fluorescence anisotropy analysis; conditions: read-out: Kd(app)
T2 sequence (P01116 whole entry G12V): as the sequence (P01116 whole entry) above, with G12V counted along it

[3] = biological target: GTPase KRas/RAF1 (Homo sapiens, UniProt P01116); assay: Inhibition of KRAS/RAF interaction (unknown origin); format: protein assay
Chain of GTPase KRas/RAF1 (P04049 whole entry): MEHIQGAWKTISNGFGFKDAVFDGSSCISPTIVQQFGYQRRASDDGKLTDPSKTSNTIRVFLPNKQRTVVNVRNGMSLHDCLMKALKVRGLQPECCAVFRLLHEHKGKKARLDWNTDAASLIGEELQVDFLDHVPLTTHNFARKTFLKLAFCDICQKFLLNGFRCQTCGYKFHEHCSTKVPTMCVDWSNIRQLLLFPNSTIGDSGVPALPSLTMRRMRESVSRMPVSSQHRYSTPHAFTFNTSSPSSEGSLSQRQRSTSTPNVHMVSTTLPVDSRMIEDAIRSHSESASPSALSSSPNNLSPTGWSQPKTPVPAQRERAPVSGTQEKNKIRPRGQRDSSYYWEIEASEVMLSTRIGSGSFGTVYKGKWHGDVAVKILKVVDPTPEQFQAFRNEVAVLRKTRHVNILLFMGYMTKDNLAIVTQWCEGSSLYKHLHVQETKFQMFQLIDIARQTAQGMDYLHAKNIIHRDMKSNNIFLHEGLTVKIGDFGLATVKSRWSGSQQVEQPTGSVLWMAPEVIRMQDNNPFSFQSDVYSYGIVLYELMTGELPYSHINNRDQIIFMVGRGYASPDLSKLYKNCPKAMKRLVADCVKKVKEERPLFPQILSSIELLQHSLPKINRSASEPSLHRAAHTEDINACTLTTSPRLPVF
Chain of GTPase KRas/RAF1 (P01116 whole entry): as the sequence (P01116 whole entry) above

[4] = biological target: Epidermal growth factor receptor (Homo sapiens) (UniProt P00533); assay: Inhibition of EGFR in human NCI-H1299 cells assessed as inhibition in Akt phosphorylation relative to control; format: cell-based; conditions: concentration not given here
Chain of Epidermal growth factor receptor (Homo sapiens) (P00533 whole entry): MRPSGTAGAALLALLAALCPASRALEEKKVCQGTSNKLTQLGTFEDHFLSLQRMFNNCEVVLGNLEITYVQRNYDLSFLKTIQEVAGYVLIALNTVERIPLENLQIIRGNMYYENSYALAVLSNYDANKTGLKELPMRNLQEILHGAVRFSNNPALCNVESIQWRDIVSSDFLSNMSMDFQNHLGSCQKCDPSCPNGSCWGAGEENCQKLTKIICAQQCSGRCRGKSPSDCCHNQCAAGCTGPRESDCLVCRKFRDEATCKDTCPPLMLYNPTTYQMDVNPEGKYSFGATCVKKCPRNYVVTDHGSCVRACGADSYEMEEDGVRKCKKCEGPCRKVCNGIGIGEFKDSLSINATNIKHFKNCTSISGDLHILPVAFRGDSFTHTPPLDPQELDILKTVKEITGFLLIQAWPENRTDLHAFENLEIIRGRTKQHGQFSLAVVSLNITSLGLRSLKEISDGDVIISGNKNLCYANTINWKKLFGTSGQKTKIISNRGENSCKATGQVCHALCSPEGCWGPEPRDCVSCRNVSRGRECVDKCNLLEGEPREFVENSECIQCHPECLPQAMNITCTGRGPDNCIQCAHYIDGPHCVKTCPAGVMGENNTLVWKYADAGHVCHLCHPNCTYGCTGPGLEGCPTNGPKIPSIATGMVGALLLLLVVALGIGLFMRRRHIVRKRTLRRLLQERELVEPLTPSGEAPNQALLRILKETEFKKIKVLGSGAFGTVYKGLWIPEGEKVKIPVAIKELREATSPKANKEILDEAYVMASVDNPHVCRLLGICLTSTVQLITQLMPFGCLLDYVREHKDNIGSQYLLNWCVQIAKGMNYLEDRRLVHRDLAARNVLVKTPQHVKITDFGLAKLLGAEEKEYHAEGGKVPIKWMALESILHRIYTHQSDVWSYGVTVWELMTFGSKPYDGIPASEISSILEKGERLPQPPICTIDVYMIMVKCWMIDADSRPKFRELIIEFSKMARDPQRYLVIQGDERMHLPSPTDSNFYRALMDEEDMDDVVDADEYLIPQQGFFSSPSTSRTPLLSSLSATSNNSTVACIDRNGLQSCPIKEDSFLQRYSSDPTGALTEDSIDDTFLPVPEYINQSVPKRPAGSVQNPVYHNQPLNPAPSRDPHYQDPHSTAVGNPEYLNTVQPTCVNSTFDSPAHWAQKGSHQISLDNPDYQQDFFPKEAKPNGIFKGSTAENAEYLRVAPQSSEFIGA

[5] = biological target: Epidermal growth factor receptor (Homo sapiens) (UniProt P00533); assay: Inhibition of EGFR in human NCI-H1299 cells assessed as inhibition in MEK phosphorylation relative to control; format: cell-based; conditions: concentration not given here
[6] = Binding affinity to GDP bound RAF (unknown origin) assessed as dissociation constant; design: species or system Homo sapiens
[7] = biological target: SOS1-KRAS (Homo sapiens, UniProt P01116, G12D); assay: Inhibition of KRAS G12D mutant/SOS1 (unknown origin) interaction by TR-FRET assay; format: protein-complex assay
Chain of SOS1-KRAS (P01116 whole entry G12D, looked up): as the sequence (P01116 whole entry) above, with G12D counted along it

[8] = biological target: T1, GTPase KRas; assay: Binding affinity to KRas (unknown origin) assessed as dissociation constant
[9] = biological target: T3, GTPase HRas (Homo sapiens, UniProt P01112); assay: Binding affinity to HRas (unknown origin) assessed as dissociation constant
T3 sequence (P01112 whole entry): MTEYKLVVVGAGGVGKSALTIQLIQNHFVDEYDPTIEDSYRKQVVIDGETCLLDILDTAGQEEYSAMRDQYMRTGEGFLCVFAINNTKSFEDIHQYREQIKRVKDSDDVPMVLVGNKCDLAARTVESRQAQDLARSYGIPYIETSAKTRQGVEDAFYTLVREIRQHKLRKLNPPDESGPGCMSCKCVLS

[10] = biological target: T3, GTPase HRas; assay: Binding affinity to wild-type H-Ras (unknown origin) assessed as dissociation constant by fluorescence polarization assay
[11] = biological target: T1, GTPase KRas; assay: Inhibition of recombinant wild-type KRas (unknown origin) by fluorescence polarization assay
[12] = biological target: GTPase KRas (Homo sapiens, UniProt P01116, G12D); assay: Inhibition of KRas G12D mutant (unknown origin) by fluorescence polarization assay
Chain of GTPase KRas (Homo sapiens, UniProt P01116, G12D) (P01116 whole entry G12D): as the sequence (P01116 whole entry) above, with G12D counted along it

[13] = biological target: T2, GTPase KRas; assay: Inhibition of KRas G12V mutant (unknown origin) by fluorescence polarization assay
[14] = biological target: T4, GTPase KRas (Homo sapiens, UniProt P01116, G12C); assay: Inhibition of KRas G12C mutant (unknown origin) by fluorescence polarization assay
T4 sequence (P01116 whole entry G12C): as the sequence (P01116 whole entry) above, with G12C counted along it

[15] = biological target: GTPase KRas (Homo sapiens, UniProt P01116, G12S); assay: Inhibition of KRas G12S mutant (unknown origin) by fluorescence polarization assay
Chain of GTPase KRas (Homo sapiens, UniProt P01116, G12S) (P01116 whole entry G12S): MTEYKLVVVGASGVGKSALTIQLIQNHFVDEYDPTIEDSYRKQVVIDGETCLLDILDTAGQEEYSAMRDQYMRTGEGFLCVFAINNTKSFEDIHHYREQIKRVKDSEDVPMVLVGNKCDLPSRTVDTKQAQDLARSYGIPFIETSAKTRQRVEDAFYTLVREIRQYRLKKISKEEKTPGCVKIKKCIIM

[16] = Inhibition of KRas Q61H mutant (unknown origin) by fluorescence polarization assay; design: species or system Homo sapiens
[17] = biological target: T4, GTPase KRas; assay: Binding affinity to KRas G12C mutant (unknown origin) assessed as dissociation constant by biolayer interferometry assay
[18] = test system: NCI-H358; assay: Cytotoxicity against human NCI-H358 cells measured after 24 hrs by CCK-8 method; format: functional, cell-based; conditions: NCI-H358, 24 h
[19] = test system: NCI-H358; assay: Cytotoxicity against human NCI-H358 cells measured after 36 hrs by CCK-8 method; format: functional, cell-based; conditions: NCI-H358, 36 h
[20] = test system: NCI-H358; assay: Cytotoxicity against human NCI-H358 cells measured after 48 hrs by CCK-8 method; format: functional, cell-based; conditions: NCI-H358, 48 h
[21] = test system: NCI-H358; assay: Cytotoxicity against human NCI-H358 cells measured after 72 hrs by CCK-8 method; format: functional, cell-based; conditions: NCI-H358, 72 h

Compound: CC[C@H](C)[C@H](NC(=O)[C@H](Cc1c[nH]c2ccccc12)NC(C)=O)C(=O)NCC(=O)N[C@@H](CCCNC(=N)N)C(=O)N[C@@H](CC(C)C)C(=O)N[C@@H](CC(C)C)C(=O)N[C@H](C(=O)N[C@@]1(C)CCC/C=C\CCC[C@@](C)(C(=O)N[C@@H](CCCNC(=N)N)C(=O)N[C@@H](CC(N)=O)C(=O)NCC(=O)N[C@@H](CC(N)=O)C(N)=O)NC(=O)[C@H](CC(C)C)NC(=O)[C@H](CCCCNC(=N)N)NC(=O)[C@H](CCCNC(=N)N)NC1=O)[C@@H](C)O (Ac-WIGRLLT[S5]R[hArg]L[S5]RNGN-NH2; staple (Z) 8-12)
IC50 [7]: 0.016 µM | Kd [8]: 3.92 µM | Kd [9]: 3.92 µM

Compound: CC[C@H](C)[C@H](NC(=O)CNC(=O)[C@H](Cc1ccccc1)NC(=O)[C@H](Cc1ccccc1)NC(=O)[C@H](CCCNC(=N)N)NC(=O)[C@H](CCCNC(=N)N)NC(C)=O)C(=O)N[C@@]1(C)CCC/C=C\CCC[C@@](C)(C(=O)N[C@@H](CC(C)C)C(=O)N[C@@H](CCCCN)C(=O)N[C@H](C(=O)N[C@@H](CCC(=O)O)C(=O)N[C@@H](CCC(=O)O)C(=O)NCC(=O)N[C@@H](CC(N)=O)C(N)=O)[C@@H](C)O)NC(=O)[C@H](CC(N)=O)NC(=O)[C@H]([C@@H](C)O)NC(=O)[C@H](CC(C)C)NC1=O
IC50 [11]: 5 µM | IC50 [12]: 5 µM | IC50 [13]: 5 µM | IC50 [14]: 5 µM | IC50 [15]: 5 µM | IC50 [16]: 5 µM

Compound: CC[C@H](C)[C@H](NC(=O)CNC(=O)[C@H](Cc1ccccc1)NC(C)=O)C(=O)N[C@@]1(C)CCC/C=C\CCC[C@@](C)(C(=O)N[C@@H](CC(C)C)C(=O)N[C@@H](CCCCN)C(=O)N[C@H](C(N)=O)[C@@H](C)O)NC(=O)[C@H](CC(N)=O)NC(=O)[C@H]([C@@H](C)O)NC(=O)[C@H](CC(C)C)NC1=O (Ac-FGI[S5]LTN[S5]LKT-NH2; staple (Z) 4-8)
Kd [17]: 7.67 µM | IC50 [18]: 15.7 µM | IC50 [19]: 7.55 µM | IC50 [20]: 5.75 µM | IC50 [21]: 6.68 µM

The remaining lines, values ahead:

Kd [1]: 0.21 µM | Kd [2]: 17 µM | IC50 [3]: 3.4 µM | inhibition [4]: 60% | inhibition [5]: 50% | Kd [6]: 0.37 µM
Compound: CC[C@H](C)[C@@H]1NC(=O)[C@H](Cc2cn(CCc3c(C)[nH]c4cc(Cl)cc(Cl)c34)nn2)NC(=O)[C@H](CC(N)=O)NC(=O)[C@H](CCCNC(=N)N)NC(=O)[C@H](Cc2ccccc2)NC(=O)[C@H](CC(C)C)NC(=O)[C@H](C)NC(=O)c2cc3cc(c2)C(=O)NC[C@@H](C(N)=O)NC(=O)[C@H](CCCNC(=N)N)NC(=O)[C@H](CCCNC(=N)N)NC(=O)[C@H](CCCNC(=N)N)NC(=O)[C@H](CCCNC(=N)N)NC(=O)[C@H](Cc2ccc4ccccc4c2)NC(=O)[C@H](Cc2ccccc2)NC(=O)[C@H](CCCCNC3=O)NC1=O

Kd [10]: 4.1 µM
Compound: C=CS(=O)(=O)NCCCC(=O)NCCCC[C@H](NC(=O)[C@H](CC(C)C)NC(=O)C[C@@H](CC(=O)O)NC(=O)[C@H](CC(C)C)NC(=O)[C@H](CCCNC(=N)N)NC(=O)[C@H](Cc1ccc(O)cc1)NC(=O)CC(C)(CC)NC(=O)CN1C/C=C\CCCC(=O)N[C@@H](Cc2ccccc2)C(=O)N[C@@H](CCC(=O)O)C1=O)C(=O)N[C@@H](CCCCN)C(=O)NCCC(=O)N[C@@H](CCC(=O)O)C(=O)N[C@@H](CCC(=O)O)C(=O)N[C@@H](C)C(=O)N[C@@H](CC(N)=O)C(N)=O (stereo partly specified)
